Laboratory results taken from ChEMBL document CHEMBL1124661, “Synthesis of 8-substituted derivatives of the 2-deoxy analogue of 3-deoxy-beta-D-manno-2-octulopyranosonic acid (2-deoxy-beta-KDO) as inhibitors of 3-deoxy-D-manno-octulosonate cytidylyltransferase” (J Med Chem, 1989).

How the values were obtained:
[1] = Activity against CMP-KDO synthetase-KDO-lipid A transferase (CKS-KLT) assay from Escherichia coli D21
[2] = Activity against CMP-KDO synthetase (CKS) from Escherichia coli D21, the compound gave rise to a strongly interfering absorption in the thiobarbituric acid assay
[3] = Activity against CMP-KDO synthetase (CKS) from Escherichia coli D21,the compound gave rise to a strongly interfering absorption in the thiobarbituric acid assay
[4] = Activity against CMP-KDO synthetase (CKS) from Escherichia coli D21

Row | IC50 [1] [µM] | IC50 [2] | IC50 [3] | IC50 [4] [µM] | SMILES
1 | 4.8 |  |  | 24 | O=C(O)[C@@H]1C[C@@H](O)[C@@H](O)[C@@H]([C@H](O)CF)O1
2 | 10 |  |  | 18 | O=C(O)[C@@H]1C[C@@H](O)[C@@H](O)[C@@H]([C@H](O)CO)O1
3 | 6.8 |  |  | 22 | C[C@@H](O)[C@H]1O[C@H](C(=O)O)C[C@@H](O)[C@H]1O

Second part, the molecule before the results:

Row | SMILES | IC50 [1] [µM] | IC50 [2] | IC50 [3] | IC50 [4] [µM]
4 | N.[N-]=[N+]=NC[C@@H](O)[C@H]1O[C@H](C(=O)O)C[C@@H](O)[C@H]1O | 80 | Strongly interfering absorption |  | 
5 | NC[C@@H](O)[C@H]1O[C@H](C(=O)O)C[C@@H](O)[C@H]1O | 7.4 |  | Strongly interfering absorption | 
6 | N.O=C(O)[C@@H]1C[C@@H](O)[C@@H](O)[C@@H]([C@H](O)CS)O1 | 17 |  | Strongly interfering absorption | 
